In PubChem BioAssay AID1259426 (Fisher Drug Discovery Resource Center, 2018):
Several values for one entry are separate records, joined by “and”; a condition that tells them apart may be missing. Identical values can stand only once. Activity calls are given as the source filed them.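 How the source made its calls: active means EC50 under a set limit in control cells lacking the mosquito receptor, marking a fluorescence artifact; inactive means the rest.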

Molecular target: HEK293 Galpha15/GCaMP6s without NPYLR7, calcium fluorescence
Test: calcium response in NPYLR7-null HEK293 cells, dose response, counter-screen for mosquito NPYLR7 agonist project, cell-based, HEK293 lacking NPYLR7 (AID 1259426);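 further: potency for a rise in fluorescence over baseline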

Compound | EC50
O=C(CC1SC(=O)NC1=O)Oc1ccc(/C=C2\SC(=O)NC2=S)cc1 (stereo not given) | 7.71 µM
CCn1c(=O)c2c(nc(/C=C/c3ccc(OC)c(OC)c3)n2C)n(CC)c1=O | > 20 µM (inactive)
C#CCN1C(=O)SC(=Cc2ccc(N3CCCCC3)o2)C1=O | 2.36 µM
COc1ccc(CN2CCN(Cc3cccn3-c3ncccn3)CC2CCO)c(C)c1C (stereo not given) | > 20 µM (inactive)
COc1cc(/C=C(/C#N)c2nc3cc(Cl)ccc3s2)ccc1O | > 20 µM (inactive)
CCOc1cc(/C=C(\C#N)c2nc3ncc(Br)cc3[nH]2)ccc1O | 2.3 µM
COc1ccc(NC(=O)CN2C(=O)c3ccccc3NC23CCN(C)CC3)cn1 | > 20 µM (inactive)
CNC(=O)NC(=O)CCN1CC(c2ccccc2Cl)c2c([nH]c3ccccc23)C1C (stereo not given) | > 20 µM (inactive)
CCCC1CCC(C(=O)Nc2nnc(SCC)s2)CC1 (stereo not given) | > 20 µM (inactive)
O=C(Cc1ccc2c(c1)CCC2)NCC1CCN(c2ccccc2)C1 (stereo not given) | > 20 µM (inactive)
NC(=O)CN1c2cccc3cccc(c23)S1(=O)=O | > 20 µM (inactive)
CN1C(=S)N(C2CCCCC2)C(=O)/C1=C\c1ccc2c(c1)OCO2 | > 20 µM (inactive)
CC(=O)NN1C(=O)/C(=C\c2ccc(O)cc2)SC1=S | 3.61 µM
CC[C@@]1(O)C(=O)OCc2c1cc1n(c2=O)Cc2cc3c(CN(C)C)c(O)ccc3nc2-1 | 0.188 µM and 1.35 µM
CC1N(C)c2ccc(C=Cc3cc[n+](C)cc3)cc2C1(C)C (stereo not given) | 8.49 µM
CC(C)NC(=O)C(C)N1CCc2onc(-c3ccc(C(F)(F)F)cc3)c2C1 (stereo not given) | 8.58 µM
O=C1SC(Nc2ccc(Br)cc2)C(=O)N1c1ccccc1 (stereo not given) | 17.9 µM
Oc1ccc(-c2onc3ccc(Cl)cc23)cc1 | > 20 µM (inactive)
CCNc1ccc(OC)nc1 | > 20 µM (inactive)
N#CC(C#N)=C1C=C2C=C(N3CCN(Cc4ccccc4)CC3)CCC2CC1 (stereo not given) | > 20 µM (inactive)
CC1CN(c2ccc(/C=C(\C#N)c3nc4ccccc4[nH]3)o2)CC(C)O1 (stereo not given) | > 20 µM (inactive)
CCC(CO)[n+]1c(C)cc(C=C2Sc3ccccc3N2CC)cc1C (stereo not given) | 1.86 µM
COc1cc(/C=C2\SC(=S)N(C(CC(=O)O)C(=O)O)C2=O)ccc1O (stereo not given) | 9.71 µM
COc1ccc(/C=C2\Oc3c(ccc4c3CN(Cc3ccncc3)CO4)C2=O)cc1 | 8.8 µM
CC(C)NC[C@H](O)c1ccc(O)c(O)c1 | < 0.039 µM
O=C(CN1C(=O)SC(=Cc2ccc(N3CCCCCC3)o2)C1=O)N1CCCCCC1 | > 20 µM (inactive)
O=C(O)c1csc(CSc2nnc(-c3ccncc3)n2-c2cccc(C(F)(F)F)c2)n1 | > 20 µM (inactive)

Compound | EC50
O=C1C(=Cc2ccccc2O)NC(=S)N1Cc1ccco1 | 0.955 µM
C=CCC1=CC(=Cc2c(N)n3nc(Cc4cccs4)sc3nc2=O)C=C(OC)C1=O | 2.43 µM
CN1CCN(Cc2c(O)ccc3c2O/C(=C\c2cc4cc(Br)ccc4o2)C3=O)CC1 | 12.7 µM
CN=c1nc(-c2ccccc2)n(-c2ccccc2)s1 | > 20 µM (inactive)
CC1=CC(C)C(C(=O)O)C(C(=O)O)C1 (stereo not given) | > 20 µM (inactive)
CCN(CC)CC[n+]1c(C)cc(C=C2Sc3ccccc3N2C)cc1C | > 20 µM (inactive)
COc1ccc(NCc2ccc(OC)c(Br)c2)cn1 | 5.12 µM
COc1cc(/C=C2\C(=N)N3N=CSC3=NC2=O)cc(Br)c1OC(=O)c1ccco1 | 10 µM
COc1cc(/C=C/c2nc3ccccc3o2)cc(Cl)c1O | 1.7 µM
CCN1CCN(c2ccc(C(=O)C=Cc3ccc(O)c(OC)c3)cc2F)CC1 | 11.2 µM
COc1ccc2c(C)nc(N=C(N)N)nc2c1 | > 20 µM (inactive)
COc1cc(C=C2N=C(c3ccc4c(c3)OCO4)OC2=O)cc2c1OCCO2 | > 20 µM (inactive)
COCCN=Cc1cc(I)cc(I)c1O | > 20 µM (inactive)
CCOC(=O)C1CCCN(c2nc3nonc3nc2N2CCSCC2)C1 (stereo not given) | > 20 µM (inactive)
N#C/C(=C\c1ccc(O)c(O)c1)C(=O)NCc1ccccc1 | > 20 µM (inactive)
COc1cccc(CN2C(=O)c3cccc(N)c3C2=O)c1 | > 20 µM (inactive)
CCN1CCc2c(sc(NC(=O)COc3ccccc3)c2-c2nc3ccccc3s2)C1 | > 20 µM (inactive)
CCN1CC=C2C(C#N)C(=N)C(C#N)(C#N)C(c3cccs3)C2C1 (stereo not given) | > 20 µM (inactive)
COC(=O)c1cnc(/C=C/c2cc(C)c(O)c(C)c2)s1 | > 20 µM (inactive)
CCCCN(CC(=O)Nc1c(-c2ccccc2)c(C)nn1-c1ccccc1C)S(=O)(=O)c1ccc(F)cc1 | > 20 µM (inactive)
CCCCCn1c(=O)c2c(nc3n2CCN3c2cc(C)cc(C)c2)n(C)c1=O | > 20 µM (inactive)
O=c1oc2c(CN3CCN(CCO)CC3)c(O)ccc2cc1-c1nc2ccccc2s1 | < 0.039 µM
COc1cc(C=C2Oc3cc(O)ccc3C2=O)cc(OC)c1OC | 4.83 µM
COc1cc(/C=C2\Oc3c(ccc4c3CN(CC3CCCO3)CO4)C2=O)cc(OC)c1OC (stereo not given) | 9.34 µM
CCOC(=O)c1ccc(N=c2oc3cc(O)ccc3cc2-c2nc3ccccc3[nH]2)cc1 | 0.204 µM
O=C(O)CN1C(=O)/C(=C\c2ccc(O)cc2)SC1=S | 13.3 µM
Cc1cc(O)c(CN2CCN(CCO)CC2)c2c1C(=O)/C(=C/c1cc3ccccc3o1)O2 | 7.38 µM

Compound | EC50
FC(F)(F)c1cc(-c2cccs2)nc2ncnn12 | 18.3 µM
COc1cc(C=C(C#N)S(=O)(=O)c2ccc(F)cc2)cc(Br)c1O | > 20 µM (inactive)
CC(C(=O)O)n1c(O)c(C=C2C=Nc3ccccc32)sc1=S (stereo not given) | 6.92 µM
CC(=O)Oc1c(/C=C(\C#N)C(N)=O)[nH]c2ccccc12 | 6.22 µM
O=C(COc1ccccc1)N1CCCC(CNS(=O)(=O)c2cccs2)C1 (stereo not given) | > 20 µM (inactive)
COCCCNCc1c(-c2ccc(F)cc2)noc1N1CCOCC1 | > 20 µM (inactive)
CN1C(=CC=C2C(=O)CC(C)(C)CC2=O)C(C)(C)c2ccccc21 | 13.1 µM
COCCCN1COc2ccc3c(c2C1)O/C(=C\c1cc(OC)c(OC)c(OC)c1)C3=O | 11.4 µM
Cc1ccc(/C=C2/Oc3cc(O)ccc3C2=O)s1 | 17.2 µM
CCCc1[nH]n(-c2ccc(Cl)c(Cl)c2)c(=O)c1/C=C1\NC(=O)N(Cc2ccc(C)cc2)C1=O | 18.9 µM
O=C1CSC(=S)N1N=Cc1cc(Br)c(O)c(Br)c1 | 2.31 µM
CC1C(=O)c2cccc3c(=O)n(-c4ccccc4)c(O)c(c23)C1=O (stereo not given) | > 20 µM (inactive)
CN(Cc1cnc2ccccc2n1)C(=O)C1CC2(CCNCC2)CN1 (stereo not given) | > 20 µM (inactive)
COC(=O)C(C)Sc1nc2sc3c(c2c(=O)n1C)CCC3 (stereo not given) | > 20 µM (inactive)
Cc1cccc(Oc2nc3ccccn3c(=O)c2/C=C(\C#N)c2nc3ccccc3s2)c1 | > 20 µM (inactive)
CCN(CC)c1ccc(/C=C2/SC(=S)N(CC(=O)O)C2=O)cc1 | 0.355 µM
CCOC(=O)c1cc(O)c(C(=O)OCC)s1 | > 20 µM (inactive)
COc1ccccc1Oc1nc2ccccn2c(=O)c1/C=C(\C#N)c1nc2ccccc2s1 | > 20 µM (inactive)
O=c1cc(C(F)(F)F)c2ccc(O)cc2o1 | 6.31 µM
C(=Cc1ccccc1)C=NNc1ncnc2ccccc12 | > 20 µM (inactive)
COc1cc(/C=C(\C#N)C(=O)c2ccc(O)c(O)c2)cc(I)c1O | 6.08 µM
CC(C)CN1C(=O)C(=Cc2c(N3CCN(CCO)CC3)nc3ccccn3c2=O)SC1=S | > 20 µM (inactive)
COc1cc(-c2nc3n(n2)C(c2ccc(O)cc2)C(C(N)=O)=C(C)N3)cc(OC)c1OC (stereo not given) | > 20 µM (inactive)
CCN1/C(=C/C2=CC(=O)CC(C)(C)C2)Sc2ccccc21 | 3.9 µM
COC(=O)C1CCN(S(=O)(=O)c2c(F)cc(F)cc2Br)CC1 | > 20 µM (inactive)
O=[N+]([O-])c1ccc(Cl)c2nonc12 | 4.83 µM
COc1ccc(Cl)cc1Nc1nnc(-c2cc3c(ccc4ccccc43)oc2=O)s1 | > 20 µM (inactive)

Compound | EC50
O=C(O)c1csc(CSc2nnc(Cc3ccccc3)n2-c2cccc(C(F)(F)F)c2)n1 | > 20 µM (inactive)
N#CC(C#N)=C1C=C2C=C(N3CCCCCC3)CCC2CC1 (stereo not given) | < 0.039 µM
N#CC1C(=N)Oc2cc(N)ccc2C1c1c(Cl)cccc1Cl (stereo not given) | > 20 µM (inactive)
N#CC1C(=N)Oc2cc(O)ccc2C1c1ccc(Cl)cc1Cl (stereo not given) | 11.9 µM
COc1ccc(N2C(=O)/C(=C\c3ccc[nH]3)N(C)C2=S)c([N+](=O)[O-])c1 | > 20 µM (inactive)
CC1CCCCC1OCCNC(=O)C1(c2ccc(F)cc2)CCC1 (stereo not given) | > 20 µM (inactive)
CCOc1cc(/C=C2/Oc3cc(O)ccc3C2=O)cc(Cl)c1OCC(=O)N(C)C | > 20 µM (inactive)
CCOC(=O)C1=C(O)/C(=C\c2ccc(N(C)C)cc2)SC1=Nc1ccc(OC)cc1OC | > 20 µM (inactive)
CCOc1ccc2nc3cc(N)ccc3c(N)c2c1 | 4.44 µM
Cc1ccc(N2C(=O)NC(=O)/C(=C\c3cccs3)C2=O)cc1 | > 20 µM (inactive)
O=C1/C(=C/c2cc3ccccc3o2)Oc2cc(O)ccc21 | > 20 µM (inactive)
COc1cc(OC)c(C2=NOC3(CC(=O)N(c4cccc(Cl)c4)C3=O)C2)cc1OC (stereo not given) | > 20 µM (inactive)
CN(C)c1ccc(/C=C2/SC(=S)N(CC(=O)O)C2=O)cc1 | 6.89 µM
COc1cc(OC)c(OC)cc1/C=C1/SC(=S)N(CC(=O)O)C1=O | 5.82 µM
CCC1CN(C(=O)c2cc(C(C)C)on2)CCC(=O)N1Cc1ccccc1 (stereo not given) | > 20 µM (inactive)
CNC[C@H](O)c1ccc(O)c(O)c1 | 0.039 µM
CCOC(=O)N1CCN(c2ccc(/C=C(\C#N)c3nc4ccccc4[nH]3)o2)CC1 | > 20 µM (inactive)
Cc1nc(Sc2nnc3ccccn23)c2c3c(sc2n1)CCCC3 | > 20 µM (inactive)
O=C(CC(c1cccc([N+](=O)[O-])c1)c1c[nH]c2ccccc12)NC1CC1 (stereo not given) | > 20 µM (inactive)
CCCC[n+]1c(C)cc(C=C2Sc3ccccc3N2CC)cc1C | 18.7 µM
COc1ccc(C(=O)C=Cc2cc(Br)c(O)c(OC)c2)cc1F | < 0.039 µM
CCOC(=O)c1c(-c2ccccc2)csc1N=Cc1nc(-c2ccccc2)oc1O | > 20 µM (inactive)
Nc1nc(Cl)nc2c1ncn2[C@@H]1O[C@H](COP(=O)(O)OP(=O)(O)OP(=O)(O)O)[C@H](O)C1O (stereo not given in full) | > 20 µM (inactive)
O=c1oc2c(CN3CC4CC(C3)c3cccc(=O)n3C4)c(O)ccc2cc1-c1nc2ccccc2s1 (stereo not given) | 13.4 µM
